The record followed here is patent publication US6054441A, “Oxypurine nucleosides and their congeners, and acyl derivatives thereof, for improvement of hematopoiesis” (priority 1995, dated 2000).

Holding throughout (format): in vivo, Balb/C mice
For assay [1], the system named is hematopoietic recovery after cyclophosphamide. The experiment in a line: Hematopoietic recovery after cyclophosphamide, acyl chain length (Example 38). The settings on record: day 7.
For assay [2] the test system is unchanged. The experiment in a line: Timing of administration, hematopoietic recovery after cyclophosphamide (Example 41). To be noted: day 7. The procedure:
Cyclophosphamide (CP) (275 mg/kg, i.p.) was administered to 81 Balb/C female mice weighing approximately 20 grams each. Twenty-four hours later treatment was begun. Mice were given a 0.4 ml i.p. injection of either physiological saline (controls), Tween 80 (0.2%), or palmitoylguanosine (5 μmoles/mouse/day in 0.2% Tween 80). The timing of the treatments was varied within the groups. The control group was given saline on days 1-6. The mice receiving Tween 80 were treated either on days 1-4, 4-6 or 1-6. Palmitoylguanosine-treated mice were treated either on days 1-2, 1-4, 3-5, 4-6 or 1-6. If a group of mice received no Tween 80 or palmitoylguanosine on a given day, saline was administered by i.p. injection. Thus, there were 9 groups of 9 animals in all. On day 7 following CP administration all of the animals were bled and then sacrificed by cervical dislocation. Spleens were removed and weighed, and complete blood cell counts performed.

For assay [3] the test system is unchanged. Put plainly: Hematopoietic recovery after cyclophosphamide (Example 50). To be noted: day 5; 2 μmoles/mouse. As to the method:
Cyclophosphamide (CP) (275 mg/kg, i.p.) was administered to 96 Balb/C female mice weighing approximately 20 grams each. Twenty-four hours later and each day thereafter mice were given a 0.4 ml i.p. injection of either Tween-80 (0.2%) (controls), palmitoyldeoxyguanosine (2 μmoles/mouse), palmitoyldeoxyinosine (2 μmoles/mouse), palmitoylacyclovir (2 μmoles/mouse), palmitoylarabinosylguanine (2 μmoles/mouse), palmitoylarabinosylhypoxanthine (2 μmoles/mouse), monopalmitoylguanosine 2',3'-acyclic dialcohol (2 μmoles/mouse), and palmitoyl-8-thioguanosine (2 μmoles/mouse). On days 5 and 7 following CP administration 6 animals in each of the 8 groups were bled and then sacrificed by cervical dislocation. Spleens were removed and weighed, and complete blood cell counts performed.

Structures are written as SMILES.

On to `CCCCCCCCCCCCCCCC(=O)OC[C@H]1O[C@@H](n2cnc3c(=O)[nH]c(N)nc32)[C@H](O)[C@@H]1O`, for which the “white blood cell (WBC) counts” value in assay [1] is given as “greatest effect on total WBC counts”. Also, the spleen weight result in assay [1] (guanosine 5, acyl derivatives 2.5 μmoles/mouse/day i.p.) is on record as “significantly larger spleens”; in assay [2] (5 μmoles/mouse/day, any time period, vs saline) it was “significantly greater spleen weight”; in assay [2] (any period, vs Tween 80), “larger spleens”; in assay [2] (treatment days 1-4 or 1-6, among periods) it was “greatest effect on spleen weight”; in assay [3] it was “significantly elevated”. In addition, the “total white blood cell (WBC) counts” value was “significantly greater” in assay [2] (all periods except days 4-6, vs Tween 80); “significantly greater” in assay [2] (each treatment period, vs saline); “greatest effect” in assay [2] (treatment days 1-6, vs other periods). Besides, in assay [2] (treatment days 1-2 or 1-6), the lymphocyte counts result is given as “elevated lymphocyte counts”. In addition, the total neutrophil counts result in assay [2] (treatment days 1-6) is recorded as “greatest increase in total neutrophil counts”. In addition, the total neutrophils entry in assay [2] (treatment days 1 and 2, vs saline or Tween 80) was “significant increase in total neutrophils”.
